{"source": "PubChem BioAssay (NCI)", "test_in_all_cases": "DTP human tumour cell line panel, 48 h", "key": {"[1]": {"system": "MOLT-4 leukemia"}, "[2]": {"system": "NCI-H226 lung"}, "[3]": {"system": "NCI-H23 lung"}, "[4]": {"system": "NCI-H460 lung"}, "[5]": {"system": "NCI-H522 lung"}, "[6]": {"system": "OVCAR-3 ovarian"}, "[7]": {"system": "OVCAR-4 ovarian"}, "[8]": {"system": "OVCAR-5 ovarian"}, "[9]": {"system": "OVCAR-8 ovarian"}, "[10]": {"system": "PC-3 prostate"}, "[11]": {"system": "RPMI-8226 leukemia"}, "[12]": {"system": "RXF 393 renal"}, "[13]": {"system": "SF-268 CNS"}, "[14]": {"system": "SF-295 CNS"}, "[15]": {"system": "SF-539 CNS"}, "[16]": {"system": "SK-MEL-2 melanoma"}, "[17]": {"system": "SK-MEL-28 melanoma"}, "[18]": {"system": "SK-MEL-5 melanoma"}, "[19]": {"system": "SK-OV-3 ovarian"}, "[20]": {"system": "SN12C renal"}, "[21]": {"system": "SNB-19 CNS"}, "[22]": {"system": "SR leukemia"}, "[23]": {"system": "SW-620 colon"}, "[24]": {"system": "T-47D breast"}, "[25]": {"system": "TK-10 renal"}, "[26]": {"system": "U251 CNS"}, "[27]": {"system": "UACC-257 melanoma"}, "[28]": {"system": "UACC-62 melanoma"}, "[29]": {"system": "UO-31 renal"}}, "note": "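Exposure lasted 48 hours, with cells grown in 96-well plates and compounds tested at five concentrations. Here, GI50 denotes the concentration required for 50% inhibition of growth. Definition used: TGI = concentration required for complete inhibition of growth.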"}
{"compound": "Cc1ccc(C(=O)CSc2nc3ccc(F)cc3c(=O)n2-c2ccc(Cl)cc2)cc1", "values": [{"measurement": "TGI", "setting": "[1]", "value": "> 100", "unit": "µM"}, {"measurement": "GI50", "setting": "[2]", "value": 3.13, "unit": "µM"}, {"measurement": "TGI", "setting": "[2]", "value": 24.9, "unit": "µM"}, {"measurement": "GI50", "setting": "[3]", "value": "> 100", "unit": "µM"}, {"measurement": "TGI", "setting": "[3]", "value": "> 100", "unit": "µM"}, {"measurement": "GI50", "setting": "[4]", "value": 10.3, "unit": "µM"}, {"measurement": "TGI", "setting": "[4]", "value": "> 100", "unit": "µM"}, {"measurement": "GI50", "setting": "[5]", "value": "> 100", "unit": "µM"}, {"measurement": "TGI", "setting": "[5]", "value": "> 100", "unit": "µM"}, {"measurement": "GI50", "setting": "[6]", "value": "> 100", "unit": "µM"}, {"measurement": "TGI", "setting": "[6]", "value": "> 100", "unit": "µM"}, {"measurement": "GI50", "setting": "[7]", "value": 9.45, "unit": "µM"}, {"measurement": "TGI", "setting": "[7]", "value": "> 100", "unit": "µM"}, {"measurement": "GI50", "setting": "[8]", "value": "> 100", "unit": "µM"}, {"measurement": "TGI", "setting": "[8]", "value": "> 100", "unit": "µM"}, {"measurement": "GI50", "setting": "[9]", "value": 7.89, "unit": "µM"}, {"measurement": "TGI", "setting": "[9]", "value": "> 100", "unit": "µM"}, {"measurement": "GI50", "setting": "[10]", "value": "> 100", "unit": "µM"}, {"measurement": "TGI", "setting": "[10]", "value": "> 100", "unit": "µM"}, {"measurement": "GI50", "setting": "[11]", "value": "> 100", "unit": "µM"}, {"measurement": "TGI", "setting": "[11]", "value": "> 100", "unit": "µM"}, {"measurement": "GI50", "setting": "[12]", "value": 4.89, "unit": "µM"}, {"measurement": "TGI", "setting": "[12]", "value": 32.6, "unit": "µM"}, {"measurement": "GI50", "setting": "[13]", "value": 25.3, "unit": "µM"}, {"measurement": "TGI", "setting": "[13]", "value": "> 100", "unit": "µM"}, {"measurement": "GI50", "setting": "[14]", "value": 3.51, "unit": "µM"}, {"measurement": "TGI", "setting": "[14]", "value": 21.4, "unit": "µM"}, {"measurement": "GI50", "setting": "[15]", "value": 5.08, "unit": "µM"}, {"measurement": "TGI", "setting": "[15]", "value": 47.4, "unit": "µM"}, {"measurement": "GI50", "setting": "[16]", "value": "> 100", "unit": "µM"}, {"measurement": "TGI", "setting": "[16]", "value": "> 100", "unit": "µM"}, {"measurement": "GI50", "setting": "[17]", "value": "> 100", "unit": "µM"}, {"measurement": "TGI", "setting": "[17]", "value": "> 100", "unit": "µM"}, {"measurement": "GI50", "setting": "[18]", "value": "> 100", "unit": "µM"}, {"measurement": "TGI", "setting": "[18]", "value": "> 100", "unit": "µM"}, {"measurement": "GI50", "setting": "[19]", "value": 39.1, "unit": "µM"}, {"measurement": "TGI", "setting": "[19]", "value": "> 100", "unit": "µM"}, {"measurement": "GI50", "setting": "[20]", "value": "> 100", "unit": "µM"}, {"measurement": "TGI", "setting": "[20]", "value": "> 100", "unit": "µM"}, {"measurement": "GI50", "setting": "[21]", "value": 4.93, "unit": "µM"}, {"measurement": "TGI", "setting": "[21]", "value": 73.8, "unit": "µM"}, {"measurement": "GI50", "setting": "[22]", "value": "> 100", "unit": "µM"}, {"measurement": "TGI", "setting": "[22]", "value": "> 100", "unit": "µM"}, {"measurement": "GI50", "setting": "[23]", "value": "> 100", "unit": "µM"}, {"measurement": "TGI", "setting": "[23]", "value": "> 100", "unit": "µM"}, {"measurement": "GI50", "setting": "[24]", "value": "> 100", "unit": "µM"}, {"measurement": "TGI", "setting": "[24]", "value": "> 100", "unit": "µM"}, {"measurement": "GI50", "setting": "[25]", "value": 98.1, "unit": "µM"}, {"measurement": "TGI", "setting": "[25]", "value": "> 100", "unit": "µM"}, {"measurement": "GI50", "setting": "[26]", "value": 10.8, "unit": "µM"}, {"measurement": "TGI", "setting": "[26]", "value": "> 100", "unit": "µM"}, {"measurement": "GI50", "setting": "[27]", "value": "> 100", "unit": "µM"}, {"measurement": "TGI", "setting": "[27]", "value": "> 100", "unit": "µM"}, {"measurement": "GI50", "setting": "[28]", "value": "> 100", "unit": "µM"}, {"measurement": "TGI", "setting": "[28]", "value": "> 100", "unit": "µM"}, {"measurement": "GI50", "setting": "[29]", "value": 37, "unit": "µM"}, {"measurement": "TGI", "setting": "[29]", "value": "> 100", "unit": "µM"}]}
